Measurements taken from patent publication US10792274B2, “Dehydroacetic acid (DHAA) and derivative for uses in treating cancer” (Emory University, priority 2016, dated 2020).
pKd: −log10 of the molar value. “Also recorded” adds a separate entry of the source.

Assays:
[1] = chronic injection of acetoacetate or 3HB to nude mice; type: in vivo; settings: chronic injection for 4 weeks
[2] = system: NRAS Q61K-expressing HMCB cells; assay: HMCB xenograft in nude mice; type: in vivo; settings: for BRAF-MEK1 binding in tumors / cell proliferation rates in tumors (Ki67 IHC staining) / phosphorylation of MEK1 and ERK1/2 (MEK-ERK activation) in tumors / xenograft tumor growth (growth rates, sizes, masses): single agent; for xenograft tumor growth (growth rates, sizes, masses): normal diet
[3] = serum and tumor metabolite levels and body weight of xenograft mice; type: in vivo
[4] = system: BRAF V600E-expressing human melanoma A375 cells; assay: A375 xenograft in nude mice; type: in vivo; settings: for BRAF V600E-MEK1 binding in tumors / cell proliferation rates in tumors (Ki67 IHC staining) / phosphorylation of MEK1 and ERK1/2 in tumors / xenograft tumor growth (growth rates, sizes, masses): single agent; for xenograft tumor growth (growth rates, sizes, masses): normal diet
[5] = system: diverse BRAF V600E-expressing cells; assay: DHAA with or without acetoacetate treatment of cells; type: cell-based; settings: DHAA plus acetoacetate treatment
FLAG-tagged BRAF V600E = target: T1, FLAG-tagged BRAF V600E (Homo sapiens, UniProt P15056, V600E); assay: cellular thermal shift assay, lysates of transfected 293T cells; type: binding; settings: 400 μM
T1 construct: FLAG; expressed in transfected cells; host or cells: 293T cells (lysates)
Text: (§1) Whether functional inhibition of acetoacetate would attenuate BRAF V600E tumor growth was examined. Dehydroacetic acid (DHAA) (FIG. 4A) is an inhibitory homologue of acetoacetate.

[6] = type: physicochemical
Method: (§2) To exclude potential effects of the lithium ion, a series of experiments were performed using a control salt lithium chloride.

[7] = system: Me1-ST cells expressing BRAF V600E; assay: immortalized melanocyte treatment: proliferation, MEK-ERK activation, BRAF-MEK1 binding; type: cell-based; settings: DHAA plus acetoacetate rescue treatment
BRAF V600R = BRAF V600R (Homo sapiens, UniProt P15056, V600R); assay: 14C-labeled acetoacetate binding assay
Method: (§3) BRAF wild type and mutant proteins were incubated with increasing concentrations of ^14C-labeled acetoacetate.
(§4) A series of radiometric metabolite-protein interaction analyses were performed using ^14C labeled acetoacetate incubated with purified BRAF variants in the presence and absence of DHAA.

BRAF V600D = BRAF V600D (Homo sapiens, UniProt P15056, V600D); assay: 14C-labeled acetoacetate binding assay
Method: as §3, §4

BRAF V600E [8] = target: T2, BRAF V600E (Homo sapiens, UniProt P15056, V600E); assay: BRAF V600E kinase activity (Vmax and Km), MEK1 as substrate; type: biochemical; settings: acetoacetate binding; MEK1 as substrate
Method: (§5) Whether DHAA inhibits BRAF V600E directly was examined. […] In contrast, DHAA had no effect on BRAF WT-MEK1 binding or MEK1 phosphorylation in a control experiment using purified BRAF WT incubated with MEK1 in the presence of acetoacetate (FIG. 4I left panel). […] This is physiologically consistent with the acetoacetate levels determined as approximately 300 μM in stable HMGCL knockdown A375 and A2058 cells.

[9] = system: control V600A mutant or other clinically reported BRAF mutants including K507E, N581S, D594N, L597Q, K601E, and S616F; assay: 14C-labeled acetoacetate binding assay, other BRAF mutants
Method: as §3, §4

[10] = target: T3, V600E mutant of an active, truncated C-terminal domain of BRAF (tBRAF, 416-766 aa) (Homo sapiens, UniProt P15056, V600E); assay: 14C-labeled acetoacetate binding assay
T3 construct: truncated C-terminal domain of BRAF (tBRAF, 416-766 aa)
Method: as §4

BRAF V600E-MEK1 binding = BRAF V600E-MEK1 binding (Homo sapiens, UniProt P15056, V600E); assay: cell-free in vitro coupled protein-protein binding and kinase assay; type: biochemical; settings: substance alone
Method: as §5

BRAF V600R-MEK1 binding = BRAF V600R-MEK1 binding (Homo sapiens, UniProt P15056, V600R); assay: MEK1 binding to BRAF mutants; type: biochemical
BRAF V600E [11] = target: T2, BRAF V600E; assay: 14C-labeled acetoacetate binding assay (radiometric metabolite-protein interaction)
Method: as §3, §4

[12] = system: BRAF V600E-expressing human melanoma A2058 cells; assay: A2058 xenograft in nude mice; type: in vivo
Text: Xenograft tumor growth and in nude mice inoculated with BRAF V600E-positive human melanoma A2058 fed with normal or high-fat diets followed by intraperitoneal injection with DHAA.

BRAF V600D-MEK1 binding = BRAF V600D-MEK1 binding (Homo sapiens, UniProt P15056, V600D); assay: MEK1 binding to BRAF mutants; type: biochemical
[13] = system: other BRAF mutants-MEK1 binding; assay: MEK1 binding to BRAF mutants; type: biochemical
BRAF V600E [14] = target: T2, BRAF V600E; assay: thermal melt shift assay, purified recombinant protein; type: binding
Method: Arrows in the panel indicate melting temperatures at 0 μM (left) and 400 μM (right).
as §1

[15] = system: diverse BRAF V600E positive or negative human melanoma cells; assay: control treatments of melanoma cells; type: cell-based
Method: as §2
In addition, similar studies were performed to exclude possible effects from the potential degradation product of acetoacetate, acetone.

[16] = DHAA plus intraperitoneal acetoacetate
[17] = increasing concentrations of 14C-labeled acetoacetate
[18] = acetoacetate injection in mice treated with fluvastatin, niacin or fenofibrate

BRAF V600E-MEK1 binding, sequence (P15056 whole entry V600E): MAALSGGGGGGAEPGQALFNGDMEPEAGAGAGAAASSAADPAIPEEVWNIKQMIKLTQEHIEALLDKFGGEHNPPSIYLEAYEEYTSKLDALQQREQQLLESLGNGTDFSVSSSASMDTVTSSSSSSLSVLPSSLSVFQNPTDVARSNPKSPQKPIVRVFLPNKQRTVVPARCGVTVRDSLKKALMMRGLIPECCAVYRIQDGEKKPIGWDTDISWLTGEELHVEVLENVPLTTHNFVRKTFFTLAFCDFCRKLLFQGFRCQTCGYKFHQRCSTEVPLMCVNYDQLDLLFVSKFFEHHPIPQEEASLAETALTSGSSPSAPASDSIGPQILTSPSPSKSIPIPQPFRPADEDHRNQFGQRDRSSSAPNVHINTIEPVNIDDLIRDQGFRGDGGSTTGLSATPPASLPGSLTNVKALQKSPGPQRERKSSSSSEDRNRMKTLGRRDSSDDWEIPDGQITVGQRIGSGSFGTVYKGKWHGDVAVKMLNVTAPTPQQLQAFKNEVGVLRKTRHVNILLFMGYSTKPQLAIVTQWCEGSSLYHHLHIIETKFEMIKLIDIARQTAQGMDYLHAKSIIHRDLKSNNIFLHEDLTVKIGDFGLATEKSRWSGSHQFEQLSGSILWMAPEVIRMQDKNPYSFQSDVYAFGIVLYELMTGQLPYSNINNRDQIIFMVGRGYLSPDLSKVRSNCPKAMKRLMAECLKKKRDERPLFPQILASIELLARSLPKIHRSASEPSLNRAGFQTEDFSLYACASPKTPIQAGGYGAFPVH
T2 sequence (P15056 whole entry V600E): as above
BRAF V600D, sequence (P15056 whole entry V600D): as the sequence (P15056 whole entry V600E) above, with E600D counted along it
BRAF V600R, sequence (P15056 whole entry V600R): as the sequence (P15056 whole entry V600E) above, with E600R counted along it
T3 sequence (P15056 416-766 V600E): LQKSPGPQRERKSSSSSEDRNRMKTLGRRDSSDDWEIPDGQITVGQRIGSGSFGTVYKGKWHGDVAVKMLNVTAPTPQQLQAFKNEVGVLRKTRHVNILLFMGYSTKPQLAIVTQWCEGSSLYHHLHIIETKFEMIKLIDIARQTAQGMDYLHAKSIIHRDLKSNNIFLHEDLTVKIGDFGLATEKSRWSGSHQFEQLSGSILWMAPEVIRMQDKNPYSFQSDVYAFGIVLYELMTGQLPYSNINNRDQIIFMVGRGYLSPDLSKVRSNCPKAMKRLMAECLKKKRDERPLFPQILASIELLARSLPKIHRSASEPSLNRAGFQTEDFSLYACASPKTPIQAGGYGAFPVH
BRAF V600D-MEK1 binding, sequence (P15056 whole entry V600D): as the sequence (P15056 whole entry V600E) above, with E600D counted along it
BRAF V600D-MEK1 binding, sequence (Q02750 whole entry partner): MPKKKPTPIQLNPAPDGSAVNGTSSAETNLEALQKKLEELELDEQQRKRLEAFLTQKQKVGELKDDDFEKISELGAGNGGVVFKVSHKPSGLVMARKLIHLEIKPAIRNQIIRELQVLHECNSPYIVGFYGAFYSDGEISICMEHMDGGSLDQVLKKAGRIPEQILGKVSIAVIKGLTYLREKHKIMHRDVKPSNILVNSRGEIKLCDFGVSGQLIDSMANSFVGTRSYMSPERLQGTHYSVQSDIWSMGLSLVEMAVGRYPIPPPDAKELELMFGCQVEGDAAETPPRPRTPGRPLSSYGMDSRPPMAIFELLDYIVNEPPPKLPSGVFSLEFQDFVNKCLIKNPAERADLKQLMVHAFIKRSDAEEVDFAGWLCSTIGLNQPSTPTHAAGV
BRAF V600R-MEK1 binding, sequence (P15056 whole entry V600R): as the sequence (P15056 whole entry V600E) above, with E600R counted along it
BRAF V600R-MEK1 binding, sequence (Q02750 whole entry partner): as the sequence (Q02750 whole entry partner) above
T1 sequence (P15056 whole entry V600E): as the sequence (P15056 whole entry V600E) above

C[C@@H](O)CC(=O)O [3HB, D-β-hydroxybutyrate]
acetoacetate or 3HB levels in urine [1]: did not alter
serum 3HB levels [1]: increased 3HB
BRAF-MEK1 binding in tumors [2]: did not affect
cell proliferation rates in tumors (Ki67 IHC staining) [2]: did not affect
phosphorylation of MEK1 and ERK1/2 (MEK-ERK activation) in tumors [2]: did not affect
xenograft tumor growth (growth rates, sizes, masses) [2]: had no effect on growth rates or masses of tumor xenografts
serum levels of 3HB (β-hydroxybutyrate) ([3]; effect of treatment): increased serum levels of β-hydroxybutyrate

CC(=O)CC(=O)O [acetoacetate]
reversal by acetoacetate injection of DHAA inhibition of BRAF V600E-MEK1 binding in tumors [4, 16]: did not reverse
reversal by acetoacetate injection of DHAA inhibition of MEK1 and ERK1/2 phosphorylation in tumors [4, 16]: did not reverse
reversal by acetoacetate injection of DHAA inhibition of cell proliferation rates (Ki67) in tumors [4, 16]: did not reverse
reversal by acetoacetate injection of fluvastatin- or niacin-attenuated tumor growth ([4]; intraperitoneal acetoacetate plus oral fluvastatin or niacin): could be reversed
BRAF V600E-MEK1 binding in tumors [4]: enhanced BRAF V600E-MEK1 association
cell proliferation rates in tumors (Ki67 IHC staining) [4]: enhanced cell proliferation rates
phosphorylation of MEK1 and ERK1/2 in tumors [4]: enhanced phosphorylation of MEK1 and ERK1/2
xenograft tumor growth (growth rates, sizes, masses) [4]: increased growth rates and masses of xenograft tumors; also recorded: increased tumor sizes; also recorded: selectively promotes
reversal by acetoacetate injection of hypolipidemic agents' inhibitory effects (MEK1/ERK1/2 phosphorylation, BRAF V600E-MEK1 association, Ki67) ([4]; tumors): effectively reversed
reversal by acetoacetate of DHAA-decreased MEK-ERK activation [5]: could not be reversed
reversal by acetoacetate of DHAA-reduced cell proliferation [5]: could not be reversed
binding in cellular thermal shift assay (FLAG-tagged BRAF V600E): bound only to BRAF V600E
stability of anion form relative to acid form [6]: approximately 55 times
reversal by acetoacetate of the inhibitory effect of DHAA on cell proliferation [7]: did not reverse
binding of 14C-labeled acetoacetate (BRAF V600R): bound
pKd (BRAF V600R; [17]): ~3.95
binding of 14C-labeled acetoacetate (BRAF V600D): bound
pKd (BRAF V600D; [17]): ~4.03
Km of BRAF V600E (BRAF V600E [8]): slightly decreased Km
Vmax of BRAF V600E (BRAF V600E [8]): increased Vmax
binding of 14C-labeled acetoacetate [9]: but not to a negative control mutant V600A or to other clinically reported BRAF mutants
acetoacetate or 3HB levels in urine [1]: did not alter
serum acetoacetate levels [1]: increased serum acetoacetate
binding of 14C-labeled acetoacetate [10]: specifically bound
promotion of association between purified BRAF V600E and MEK1 (BRAF V600E-MEK1 binding): promoted MEK1 binding
promotion of MEK1 binding to BRAF V600R with increased MEK1 phosphorylation (BRAF V600R-MEK1 binding): promoted MEK1 binding
effect of acetoacetate injection on tumor growth potential ([2]; intraperitoneal acetoacetate, fenofibrate study): had no effect on tumor growth potential
BRAF-MEK1 binding in tumors [2]: did not affect
cell proliferation rates in tumors (Ki67 IHC staining) [2]: did not affect
phosphorylation of MEK1 and ERK1/2 (MEK-ERK activation) in tumors [2]: did not affect
xenograft tumor growth (growth rates, sizes, masses) [2]: had no effect on growth rates or masses of tumor xenografts
pKd (BRAF V600E [11]; [17]): ~4.04
binding of 14C-labeled acetoacetate (BRAF V600E [11]; purified BRAF V600E): binds to purified BRAF V600E; also recorded: specifically bound
rescue by acetoacetate injection of fenofibrate-decreased tumor growth ([12]; intraperitoneal acetoacetate plus fenofibrate): effectively rescued the decreased tumor growth
reversal by acetoacetate injection of hypolipidemic agents' inhibitory effects (MEK1/ERK1/2 phosphorylation, BRAF V600E-MEK1 association, Ki67) ([12]; tumors): effectively reversed
promotion of MEK1 binding to BRAF V600D with increased MEK1 phosphorylation (BRAF V600D-MEK1 binding): promoted MEK1 binding
promotion of MEK1 binding to other BRAF mutants [13]: but not to other BRAF mutants
serum levels of acetoacetate ([3]; acetoacetate injection in DHAA-treated A375 xenograft mice): increased serum levels of acetoacetate
serum 3HB levels [3, 18]: did not affect 3HB levels
serum acetoacetate levels [3, 18]: rescued the decreased serum acetoacetate levels
serum levels of 3HB (β-hydroxybutyrate) ([3]; effect of treatment): did not affect serum levels of 3HB
serum levels of acetoacetate ([3]; effect of treatment): increased serum levels of acetoacetate

CC(C)=O [acetone]
binding in thermal melt shift assay (BRAF V600E [14]): did not bind
promotion of association between purified BRAF V600E and MEK1 (BRAF V600E-MEK1 binding): did not
BRAF V600E-MEK1 binding [15]: did not affect
cell proliferation rates [15]: did not affect
phosphorylation levels of MEK1 or ERK1/2 [15]: did not affect

[Cl-].[Li+] [lithium chloride]
BRAF V600E-MEK1 binding in tumors [4]: nor did it affect
cell proliferation rates in tumors (Ki67 IHC staining) [4]: nor did it affect
xenograft tumor growth (growth rates, sizes, masses) [4]: did not affect tumor growth potential
binding in thermal melt shift assay (BRAF V600E [14]): did not bind
promotion of association between purified BRAF V600E and MEK1 (BRAF V600E-MEK1 binding): did not
BRAF V600E-MEK1 binding [15]: did not affect
cell proliferation rates [15]: did not affect
phosphorylation levels of MEK1 or ERK1/2 [15]: did not affect
serum cholesterol levels ([3]; effect of treatment): nor did it affect
serum levels of 3HB (β-hydroxybutyrate) ([3]; effect of treatment): nor did it affect

O=C(O)c1cccnc1 [niacin]
BRAF V600E-MEK1 binding in tumors [4]: decreased BRAF V600E-MEK1 association
cell proliferation rates in tumors (Ki67 IHC staining) [4]: reduced cell proliferation rates
phosphorylation of MEK1 and ERK1/2 in tumors [4]: decreased phosphorylation of MEK1 and ERK1/2
xenograft tumor growth (growth rates, sizes, masses) [4]: effectively attenuated tumor growth potential; also recorded: reduce BRAF V600E tumor growth
serum cholesterol levels ([3]; effect of treatment): marginally decreased serum cholesterol levels
serum levels of acetoacetate ([3]; effect of treatment): reduced serum levels of acetoacetate; also recorded: decrease serum acetoacetate levels
